# Data reported in patent US7402602B2 (priority 2001, dated 2008).
row,Compound,melting point
1,CCCC(CCC)c1nc(-c2ccc(F)cc2)c[nH]1,217.5 °C
2,"CC(C)Cc1ccc(Cc2nc(-c3ccc(-c4ccccc4)cc3)c[nH]2)cc1 [Example 1, 4-(1,1′-biphenyl-4-yl)-2-(4-isobutylbenzyl)-1H-imidazole]",160 to 161 °C
3,"CCCCCCc1nc(-c2ccc(CC(C)C)cc2)c[nH]1 [Example 2, 2-hexyl-4-(4-isobutylphenyl)-1H-imidazole]",89 to 90 °C
4,"c1ccc(CCCc2nc(-c3ccccc3)c[nH]2)cc1 [Example 3, 4-phenyl-2-(3-phenylpropyl)-1H-imidazole]",106 to 108 °C
5,"CCCCCC(CCCCC)c1nc(-c2ccccc2)c[nH]1 [Example 4, 2-(1-pentylhexyl)-4-phenyl-1H-imidazole]",111.2 °C
6,"CCCCCC(CCCCC)c1nc(-c2ccc(F)cc2)c[nH]1 [Example 5, 4-(4-fluorophenyl)-2-(1-pentylhexyl)-1H-imidazole]",134.6 °C
7,"Fc1ccc(-c2c[nH]c(CC3CCCCC3)n2)cc1 [Example 6, 2-(cyclohexylmethyl)-4-(4-fluorophenyl)1H-imidazole]",68 to 70 °C
8,"CCCCCC(CCCCC)c1nc(-c2ccc(-c3ccccc3)cc2)c[nH]1 [Example 7, 4-(1,1′-biphenyl-4-yl)-2-(1-pentylhexyl)-1H-imidazole]",173.6 °C
9,"CCCC(CCC)c1nc(-c2ccc(C(C)(C)C)cc2)c[nH]1 [Example 8, 4-(4-tert-butylphenyl)-2-(1-propylbutyl)-1H-imidazole]",200 to 202 °C
10,"CCCC(CCC)c1nc(-c2ccc(-c3ccc(Br)cc3)cc2)c[nH]1 [Example 10, 4-(4′-bromo-1,1′-biphenyl-4-yl)-2-(1-propylbutyl)-1H-imidazole]",182.8 °C
11,"c1ccc(-c2ccc(-c3c[nH]c(CCC4CCCCC4)n3)cc2)cc1 [Example 11, 4-(1,1′-biphenyl-4-yl)-2-(2-cyclohexylethyl)-1H-imidazole]",104.9 °C
12,"CCCCCCc1nc(-c2ccc(-c3ccccc3)cc2)c[nH]1 [Example 12, 4-(1,1′-biphenyl-4-yl)-2-hexyl-1H-imidazole]",104.8 °C

# Second part, the molecule after the results:
row,melting point,Compound
1,172.7 °C,"CC(C)Cc1ccc(C(C)c2nc(-c3ccc(-c4ccccc4)cc3)c[nH]2)cc1 (stereo not drawn) [Example 13, 4-(1,1′-biphenyl-4-yl)-2-[1-(4-isobutylphenyl)ethyl]-1H-imidazole]"
2,116 °C,"CC(C)Cc1ccc(C(C)c2nc(-c3ccc(F)cc3)c[nH]2)cc1 (stereo not drawn) [Example 14, 4-(4-fluorophenyl)-2-[1-(4-isobutylphenyl)ethyl]-1H-imidazole]"
3,165 to 166 °C,"CC(c1ccccc1)c1nc(-c2ccc(-c3ccccc3)cc2)c[nH]1 (stereo not drawn) [Example 15, 4-(1,1′-biphenyl-4-yl)-2-(1-phenylethyl)-1H-imidazole]"
4,197 to 198 °C,"CCCC(CCC)c1nc(-c2ccc(-c3ccccc3)cc2)c[nH]1 [Example 16, 4-(1,1′-biphenyl-4-yl)-2-(1-propylbutyl)-1H-imidazole]"
5,104 to 105 °C,"c1ccc(-c2ccc(-c3c[nH]c(CC4CCCCC4)n3)cc2)cc1 [Example 17, 4-(1,1′-biphenyl-4-yl)-2-(cyclohexylmethyl)-1H-imidazole]"
6,118 to 119 °C,"c1ccc(-c2ccc(-c3c[nH]c(CCCC4CCCCC4)n3)cc2)cc1 [Example 18, 4-(1,1′-biphenyl-4-yl)-2-(3-cyclohexylpropyl)-1H-imidazole]"
